Measured values: PubChem BioAssay (NCI)
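1) Cells in 96-well plates. 2) Compound, 48 h, 5 concentrations. 3) Linear interpolation between surrounding doses. 4) Unreached endpoint = highest concentration. GI50 marks 50% less growth. TGI denotes the concentration required for complete inhibition of growth.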

Columns and labels:
Assay in all cases: DTP human tumour cell line panel, 48 h
A498 renal = system: A498 renal
BT-549 breast = system: BT-549 breast
HL-60(TB) leukemia = system: HL-60(TB) leukemia
NCI-H522 lung = system: NCI-H522 lung
OVCAR-3 ovarian = system: OVCAR-3 ovarian
PC-3 prostate = system: PC-3 prostate
RPMI-8226 leukemia = system: RPMI-8226 leukemia
SF-539 CNS = system: SF-539 CNS
SNB-19 CNS = system: SNB-19 CNS
UACC-62 melanoma = system: UACC-62 melanoma

SMILES	GI50 (A498 renal)	TGI (A498 renal)	GI50 (BT-549 breast)	TGI (BT-549 breast)	GI50 (HL-60(TB) leukemia)	TGI (HL-60(TB) leukemia)	GI50 (NCI-H522 lung)	TGI (NCI-H522 lung)	GI50 (OVCAR-3 ovarian)	TGI (OVCAR-3 ovarian)	GI50 (PC-3 prostate)	TGI (PC-3 prostate)	GI50 (RPMI-8226 leukemia)	TGI (RPMI-8226 leukemia)	GI50 (SF-539 CNS)	TGI (SF-539 CNS)	GI50 (SNB-19 CNS)	TGI (SNB-19 CNS)	GI50 (UACC-62 melanoma)	TGI (UACC-62 melanoma)
Cc1n(Cc2ccc3ccccc3c2)cc[n+]1Cc1ccc2ccccc2c1	0.47 µM	4.61 µM	0.929 µM	3.01 µM	0.427 µM	2.01 µM	0.256 µM	1.81 µM	0.521 µM	2.06 µM	1.06 µM	11.6 µM	0.405 µM	1.89 µM	1.37 µM	7.14 µM	0.676 µM	3.13 µM	0.843 µM	2.42 µM
COc1cc(/C=C2\C(=O)Nc3ccc(F)cc32)cc(OC)c1OC	54 µM	> 100 µM	22.7 µM	> 100 µM	8.39 µM	> 100 µM	22.8 µM	> 100 µM	22.8 µM	> 100 µM	40.4 µM	> 100 µM	56.8 µM	> 100 µM	> 100 µM	> 100 µM	38.4 µM	> 100 µM	11.7 µM	> 100 µM
CCN(CC)CC(C)(C)C(=O)/C=C/c1ccc(Cl)c(Cl)c1	1.63 µM	3.55 µM	1.72 µM	3.12 µM	1.07 µM	6.59 µM	1.71 µM	3.2 µM	1.53 µM	2.88 µM	1.85 µM	3.51 µM	1.96 µM	5.47 µM	1.85 µM	3.54 µM	1.82 µM	3.54 µM	1.66 µM	3.59 µM
Cc1c(C2Nc3ccccc3C2C)[nH]c2ccccc12 (centres undefined)	10.7 µM	23.1 µM	13.8 µM	34.5 µM	13.1 µM	38.3 µM	10.8 µM	26.5 µM	11.6 µM	27.2 µM	10.6 µM	32.3 µM	5.29 µM	52.3 µM	8.72 µM	25.1 µM	13.8 µM	38 µM	6.24 µM	21.3 µM
CCN1C(=O)N(CC)C2C1NC(=S)N2/N=C/C=C/c1cccs1 (centres undefined)	0.0855 µM	0.539 µM	1.2 µM	9.09 µM	0.281 µM	0.857 µM	0.214 µM	1.69 µM	0.241 µM	0.715 µM	0.344 µM	> 100 µM	0.413 µM	> 38.9 µM	0.226 µM	0.666 µM	0.508 µM	> 100 µM	0.45 µM	> 100 µM
COc1ccc(-n2cc(-c3ccc(Cl)c(Cl)c3)nc2SCc2cccc(C#N)c2)cc1	12.6 µM	44.5 µM	21.4 µM	> 100 µM	> 100 µM	> 100 µM	13.6 µM	> 100 µM	17 µM	> 100 µM	34.1 µM	> 100 µM	> 100 µM	> 100 µM	16.1 µM	41.9 µM	29.2 µM	> 100 µM	19.1 µM	> 100 µM
CCCCCc1c(C)[nH]c(/C=C2\N=C(c3ccc[nH]3)C=C2CC)c1C	< 0.0228 µM	0.267 µM	0.0145 µM	0.17 µM	0.0151 µM	0.0814 µM	< 0.01 µM	0.106 µM	0.0199 µM	0.103 µM	< 0.011 µM	1.23 µM	< 0.01 µM	0.0962 µM	0.0153 µM	0.172 µM	0.0433 µM	1.46 µM	0.0158 µM	0.043 µM
O=C(O)c1cc(O)c2c(c1)C(C1c3cc(C(=O)O)cc(O)c3C(=O)c3c(OC4OC(CO)C(O)C(O)C4O)cccc31)c1cccc(OC3OC(CO)C(O)C(O)C3O)c1C2=O (centres undefined)	> 100 µM	> 100 µM	> 100 µM	> 100 µM	> 100 µM	> 100 µM	> 100 µM	> 100 µM	> 100 µM	> 100 µM	> 100 µM	> 100 µM	–	–	> 100 µM	> 100 µM	> 100 µM	> 100 µM	> 100 µM	> 100 µM
CC(=O)Oc1ccc(Nc2c3ccccc3nc3ccccc23)cc1	0.322 µM	1.88 µM	2.77 µM	13.5 µM	0.705 µM	6.14 µM	–	–	2.14 µM	6.48 µM	2.12 µM	13.3 µM	2.25 µM	23.7 µM	1.63 µM	6.24 µM	1.86 µM	11.9 µM	1.1 µM	2.61 µM
COc1cc(NC(C)CCCN)c2nccc(C)c2c1OC (centres undefined)	14.4 µM	30 µM	16 µM	30.2 µM	4.56 µM	16.8 µM	5.28 µM	19.6 µM	3.17 µM	10.1 µM	10.5 µM	34 µM	5.67 µM	23.2 µM	10.2 µM	22.5 µM	–	–	16.6 µM	32.1 µM
